Tested on: factor IIa
Experiment: antifactor IIa activity of tafoxiparin
Assay type: biochemical
Details: definition of tafoxiparin

Chain of factor IIa (P01008 33-464): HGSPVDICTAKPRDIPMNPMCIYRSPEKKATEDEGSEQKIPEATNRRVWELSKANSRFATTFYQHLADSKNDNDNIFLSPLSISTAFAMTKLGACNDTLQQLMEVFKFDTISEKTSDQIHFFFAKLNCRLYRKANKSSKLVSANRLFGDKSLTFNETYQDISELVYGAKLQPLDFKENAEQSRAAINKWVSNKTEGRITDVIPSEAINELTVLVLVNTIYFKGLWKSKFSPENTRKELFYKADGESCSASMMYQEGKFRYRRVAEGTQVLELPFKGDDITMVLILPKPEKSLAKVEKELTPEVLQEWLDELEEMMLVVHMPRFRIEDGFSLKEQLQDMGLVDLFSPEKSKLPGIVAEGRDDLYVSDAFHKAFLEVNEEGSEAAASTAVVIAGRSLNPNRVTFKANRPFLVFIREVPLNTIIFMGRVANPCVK

Q: With tafoxiparin as the substance, how does the “antifactor Ila activity” value read?
A: less than 10 IU/mg
